Among the test systems are HOP-92 NSCLC; RPMI-8226 leukemia; KM12 colon; SF-295 CNS; T-47D breast; IGROV1 ovarian; SK-OV-3 ovarian; NCI/ADR-RES ovarian.
What all share (experiment): NCI-60 cell line screen, 48 h

The values that follow come from PubChem BioAssay (NCI).

Each structure is given as a SMILES string.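 Interpolation was linear, between the two tested concentrations surrounding the appropriate level; five concentrations were tested over 48 hours in 96-well plates. At the GI50, growth is halved. Definition used: TGI = concentration required for complete inhibition of growth.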

On to `CCN(CC)CC(C)(C)C(=O)/C=C/c1ccc(Cl)c(Cl)c1`, for which the GI50 in the assay with HOP-92 NSCLC is 0.418 µM; in the assay on RPMI-8226 leukemia, 1.96 µM; in the assay on KM12 colon, 1.67 µM; in the assay on SF-295 CNS, 1.74 µM; in the assay on T-47D breast it was 1.52 µM; in the assay with IGROV1 ovarian, 2.01 µM. Besides, the TGI with HOP-92 NSCLC turned out to be 1.85 µM; in the assay with RPMI-8226 leukemia it was 5.47 µM; with KM12 colon, 3.28 µM; in the assay with SF-295 CNS, 3.22 µM; in the assay with T-47D breast, 4.03 µM; in the assay on IGROV1 ovarian it was 4.95 µM.

On to `COc1ccc(C2C(C#N)=C(N)OC3=C2COc2ccc(F)cc23)cc1OC` (centres undefined), for which the GI50 in the assay on HOP-92 NSCLC was 47.6 µM; in the assay on RPMI-8226 leukemia, 15.8 µM; in the assay on KM12 colon, 23.5 µM; with SF-295 CNS, 27.5 µM; with SK-OV-3 ovarian, 37.3 µM; in the assay with NCI/ADR-RES ovarian it was 19.4 µM. In the assay on IGROV1 ovarian, the GI50 was 28.7 µM. For the same compound, the TGI with HOP-92 NSCLC was more than 100 µM; in the assay with RPMI-8226 leukemia, 52.6 µM; with KM12 colon, 69.2 µM; in the assay on SF-295 CNS it was 67.5 µM; in the assay with SK-OV-3 ovarian, more than 100 µM; with NCI/ADR-RES ovarian, 57.3 µM. The same compound gave a TGI with IGROV1 ovarian of more than 100 µM.

On to `C#CC(=O)Nc1cccc(Nc2nc3c(c(NCc4ccccc4)n2)CCCC3)c1`, for which the GI50 in the assay with HOP-92 NSCLC was less than 0.01 µM; in the assay on KM12 colon it was 0.0225 µM; in the assay on SF-295 CNS, 0.0152 µM; in the assay with SK-OV-3 ovarian, 0.336 µM; with T-47D breast it was 0.964 µM; in the assay with IGROV1 ovarian, less than 0.01 µM. The TGI with HOP-92 NSCLC was less than 0.01 µM; with KM12 colon, 0.337 µM; with SF-295 CNS, 0.0361 µM; in the assay on SK-OV-3 ovarian, 0.793 µM; in the assay on T-47D breast it was 3.7 µM; with IGROV1 ovarian it was 0.0598 µM.

For `Cc1c(C2Nc3ccccc3C2C)[nH]c2ccccc12` (centres undefined), the GI50 with RPMI-8226 leukemia was 5.29 µM; in the assay with KM12 colon, 7.45 µM; in the assay with SF-295 CNS, 11.5 µM; with SK-OV-3 ovarian it was 13.1 µM; in the assay with T-47D breast it was 6.16 µM; in the assay on NCI/ADR-RES ovarian, 10.4 µM. For the same compound, the GI50 in the assay on IGROV1 ovarian was 2.96 µM. The TGI with RPMI-8226 leukemia worked out at 52.3 µM; in the assay on KM12 colon it was 29.1 µM; in the assay with SF-295 CNS, 28.1 µM; with SK-OV-3 ovarian, 29.9 µM; in the assay with T-47D breast, 24 µM; with NCI/ADR-RES ovarian it was 30.7 µM. In the assay with IGROV1 ovarian, this compound displayed a TGI of 27.3 µM.

As for `CSC1(CC(=O)N(C)C)C(=O)Nc2ccccc21` (centres undefined), the TGI in the assay with RPMI-8226 leukemia, in the assay with KM12 colon, in the assay on SF-295 CNS, in the assay with SK-OV-3 ovarian, in the assay on T-47D breast and in the assay on NCI/ADR-RES ovarian was more than 100 µM each time. In addition, in the assay on IGROV1 ovarian, the TGI is more than 100 µM.

Turning to `Cc1[nH]n(-c2cccc(Cl)c2)c(=O)c1/C=C1\C=Nc2ccc(Br)cc21`, the GI50 in the assay on RPMI-8226 leukemia is 3.08 µM; with KM12 colon, 6.65 µM; in the assay on SF-295 CNS, 3.6 µM; in the assay on SK-OV-3 ovarian it was 2.22 µM; in the assay on T-47D breast, 2.06 µM; with NCI/ADR-RES ovarian, 3.4 µM. Also, the GI50 in the assay with IGROV1 ovarian is 3.04 µM. Moreover, the TGI was 22.6 µM with RPMI-8226 leukemia; more than 100 µM in the assay on KM12 colon; 14.2 µM in the assay with SF-295 CNS; 4.53 µM in the assay with SK-OV-3 ovarian; 6.26 µM with T-47D breast; 16 µM with NCI/ADR-RES ovarian. The TGI in the assay on IGROV1 ovarian is 9.34 µM.

Turning to `CC(=O)O[C@@H]1C[C@]2(C(C)C)O[C@@]1(C)[C@@H]1CCC(C)=C1[C@@H]2OC(=O)/C=C/c1ccccc1`, the GI50 in the assay with RPMI-8226 leukemia is 9.63 µM; in the assay on KM12 colon it was 40 µM; in the assay with SF-295 CNS, 38.6 µM; in the assay with SK-OV-3 ovarian, 71.3 µM; in the assay on T-47D breast it was 19.7 µM; with NCI/ADR-RES ovarian it was 23.1 µM. Besides, the GI50 with IGROV1 ovarian is more than 100 µM. The TGI was 57.4 µM with RPMI-8226 leukemia; more than 100 µM in the assay with KM12 colon; more than 100 µM in the assay with SF-295 CNS; more than 100 µM in the assay on SK-OV-3 ovarian; more than 100 µM with T-47D breast; more than 100 µM in the assay with NCI/ADR-RES ovarian. Also, in the assay with IGROV1 ovarian, the TGI was more than 100 µM.

As to `COc1cc(NC(C)CCCN)c2nccc(C)c2c1OC` (centres undefined), the GI50 is 5.67 µM with RPMI-8226 leukemia; 16.7 µM in the assay on KM12 colon; 17 µM in the assay with SF-295 CNS; 18.6 µM in the assay with SK-OV-3 ovarian; 4.04 µM with T-47D breast; 20.5 µM in the assay on NCI/ADR-RES ovarian. The GI50 in the assay on IGROV1 ovarian was 4.01 µM. Besides, the TGI with RPMI-8226 leukemia stood at 23.2 µM; in the assay on KM12 colon, 35.1 µM; with SF-295 CNS it was 32.5 µM; with SK-OV-3 ovarian it was 57.1 µM; with T-47D breast, 24.1 µM; with NCI/ADR-RES ovarian, 74.6 µM. This compound had a TGI in the assay with IGROV1 ovarian of 22.7 µM.

Turning to `Cc1cn2c(/C=C3/C(=O)Nc4ccccc43)c(-c3ccc(Cl)cc3)nc2s1`, the GI50 with RPMI-8226 leukemia is 12.3 µM; in the assay on KM12 colon it was 10.5 µM; with SF-295 CNS, 9.22 µM; in the assay on IGROV1 ovarian, 10.2 µM. Besides, the TGI turned out to be 39.2 µM in the assay on RPMI-8226 leukemia, 23.2 µM with KM12 colon, 17.4 µM with SF-295 CNS and 19.9 µM with IGROV1 ovarian.
